The test system of experiment [1] is HCT116 cells, MKN45 cells. As to the kind of experiment: Test C: Measurement of cell proliferation by 14C-thymidine pulse. The following applies: 14C-thymidine incorporation, 96 h of treatment; cell line not given. Format: cell-based. The procedure, abridged:
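HCT116 (2500/well, DMEM) and MKN45 (7500/well, RPMI), both with 10% FCS, treated after 4 h with 10 concentrations from 10 000 to 0.3 nM (3-fold, duplicate). ¹⁴C-thymidine (0.1 μCi/well) added at 72 h; incorporation read after 24 h pulse, 96 h total treatment.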

The target in experiment [2] is T1, MET (Homo sapiens, UniProt P08581). As to the kind of experiment: Test B: Inhibition of the autophosphorylation of MET; ELISA technique (pppY1230,1234,1235) in MKN45 cells. As to conditions: 1 h treatment, PhosphoMET ELISA. Further details: Seed MKN45 cells into 96-well plates (Cell coat BD polylysine) at 20 000 cells/well; endogenous in cells; host or cells: MKN45 cells. Format: cell-based. Put shortly:
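Adhered cells treated 1 h with six compound concentrations in duplicate, final 10 000 to 30 nM, against DMSO controls. Cells then lysed at 4° C for 30 min in Triton/SDS/deoxycholate buffer with phosphatase inhibitors. Phospho-MET measured by sandwich ELISA with anti-phospho MET antibody and HRP detection, absorbance at 450 nm.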
Target sequence in this assay (P08581 25-1390): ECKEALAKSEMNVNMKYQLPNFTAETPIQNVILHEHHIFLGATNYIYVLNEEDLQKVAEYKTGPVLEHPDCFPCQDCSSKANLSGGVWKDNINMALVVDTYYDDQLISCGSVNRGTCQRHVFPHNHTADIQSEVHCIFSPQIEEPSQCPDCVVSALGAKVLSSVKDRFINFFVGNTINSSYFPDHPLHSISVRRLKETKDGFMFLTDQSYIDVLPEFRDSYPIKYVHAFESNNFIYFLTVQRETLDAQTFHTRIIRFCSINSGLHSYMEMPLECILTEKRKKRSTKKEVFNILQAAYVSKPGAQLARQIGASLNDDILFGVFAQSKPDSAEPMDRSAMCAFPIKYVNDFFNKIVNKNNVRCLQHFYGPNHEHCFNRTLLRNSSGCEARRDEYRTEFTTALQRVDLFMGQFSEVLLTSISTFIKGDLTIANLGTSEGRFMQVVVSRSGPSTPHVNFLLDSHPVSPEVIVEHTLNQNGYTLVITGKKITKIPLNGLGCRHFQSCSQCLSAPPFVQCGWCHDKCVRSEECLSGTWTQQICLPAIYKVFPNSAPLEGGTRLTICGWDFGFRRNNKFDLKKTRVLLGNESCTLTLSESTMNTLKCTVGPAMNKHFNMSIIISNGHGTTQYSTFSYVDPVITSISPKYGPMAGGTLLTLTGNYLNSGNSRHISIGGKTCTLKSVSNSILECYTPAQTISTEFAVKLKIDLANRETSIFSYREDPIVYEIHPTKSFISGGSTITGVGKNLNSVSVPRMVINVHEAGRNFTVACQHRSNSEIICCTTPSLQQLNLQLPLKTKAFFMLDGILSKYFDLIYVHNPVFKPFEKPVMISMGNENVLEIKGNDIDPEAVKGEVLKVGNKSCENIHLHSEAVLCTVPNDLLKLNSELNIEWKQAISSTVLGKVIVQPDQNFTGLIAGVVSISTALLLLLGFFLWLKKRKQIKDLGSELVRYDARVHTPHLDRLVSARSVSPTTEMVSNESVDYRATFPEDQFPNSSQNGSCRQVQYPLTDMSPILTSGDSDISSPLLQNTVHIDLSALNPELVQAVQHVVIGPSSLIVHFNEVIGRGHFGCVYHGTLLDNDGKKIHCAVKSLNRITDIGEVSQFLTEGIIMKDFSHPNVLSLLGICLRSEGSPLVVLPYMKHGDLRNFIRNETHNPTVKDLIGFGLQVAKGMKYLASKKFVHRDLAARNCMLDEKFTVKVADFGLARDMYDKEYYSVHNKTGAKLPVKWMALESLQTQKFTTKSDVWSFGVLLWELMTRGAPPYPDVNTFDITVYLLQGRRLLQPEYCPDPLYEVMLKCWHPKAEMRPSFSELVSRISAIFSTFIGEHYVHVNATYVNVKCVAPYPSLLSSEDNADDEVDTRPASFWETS

Experiment [3] addresses T1, MET. Description: Test A: HTRF MET assay in 96-well format. The following applies: MET 5 nM, 10 μM ATP. Format: biochemical. Set-up: The His-Tev-MET (956-1390) recombinant DNA in pFastBac (Invitrogen) is transfected into insect cells; His tag (N, cleaved yes); TEV cleavage site (N); made in house; host or cells: SF21 insect cells (baculovirus, pFastBac). The procedure, abridged:
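Purified human MET cytoplasmic domain (956-1390, His tag cleaved), 5 nM, with compound (0.17 nM–10 μM, 3% DMSO) in MOPS pH 7.4; 1 μg/ml poly-(GAT), 10 μM ATP, 5 mM MgCl2, 10 min at ambient temperature. HTRF read-out (streptavidin-XL/anti-pTyr Eu cryptate, 2 h); % inhibition from 665/620 ratios.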
Target sequence in this assay (P08581 956-1390): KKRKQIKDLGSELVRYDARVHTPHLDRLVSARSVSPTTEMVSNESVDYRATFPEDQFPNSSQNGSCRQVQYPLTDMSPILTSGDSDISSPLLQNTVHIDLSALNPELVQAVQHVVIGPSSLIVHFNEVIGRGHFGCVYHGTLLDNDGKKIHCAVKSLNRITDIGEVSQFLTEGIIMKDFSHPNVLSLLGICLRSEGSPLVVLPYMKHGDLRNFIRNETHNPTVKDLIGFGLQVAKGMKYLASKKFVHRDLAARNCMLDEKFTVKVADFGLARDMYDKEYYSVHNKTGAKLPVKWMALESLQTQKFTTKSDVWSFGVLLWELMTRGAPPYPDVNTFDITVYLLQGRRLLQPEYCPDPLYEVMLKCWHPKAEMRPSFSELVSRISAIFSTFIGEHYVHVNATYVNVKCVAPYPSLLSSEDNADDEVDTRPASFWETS

SMILES strings stand for the structures.

`CCOc1ccc2nnc(Sc3ccc4nc(NC(=O)NCCN5CCOCC5)sc4c3)n2n1` [Example 37, 1-{6-[(6-Ethoxy[1,2,4]triazolo[4,3-b]pyridazin-3-yl)sulphanyl]-1,3-benzothiazol-2-yl}-3-[2-(morpholin-4-yl)ethyl]urea]: the IC50 in experiment [1] is < 1000 nM; in experiment [2] it was < 100 nM; in experiment [3] it was < 100 nM.
For `CCOC1=Nn2c(nnc2Sc2ccc3nc(NC(=O)NCCN4CCOCC4)sc3c2)CC1` [Example 38, 1-{6-[(6-Ethoxy-7,8-dihydro[1,2,4]triazolo[4,3-b]pyridazin-3-yl)sulphanyl]-1,3-benzothiazol-2-yl}-3-[2-(morpholin-4-yl)ethyl]urea], the IC50 in experiment [1] was < 1000 nM; in experiment [2], < 100 nM; in experiment [3], < 100 nM.
On to `COCCNc1ccc2nnc(Sc3ccc4nc(NC(=O)CCCN5CCOCC5)sc4c3)n2n1` [Example 39, N-[6-({6-[(2-Methoxyethyl)amino][1,2,4]triazolo[4,3-b]pyridazin-3-yl}sulphanyl)-1,3-benzothiazol-2-yl]-4-(morpholin-4-yl)butanamide], for which the IC50 was < 1000 nM in experiment [1], < 100 nM in experiment [2] and < 100 nM in experiment [3].
On to `COCCNc1ccc2nnc(Sc3ccc4nc(NC(=O)C5CC5)sc4c3)n2n1` [Example 40, N-[6-({6-[(2-Methoxyethyl)amino][1,2,4]triazolo[4,3-b]pyridazin-3-yl}sulphanyl)-1,3-benzothiazol-2-yl]cyclopropanecarboxamide], for which the IC50 is < 1000 nM in experiment [1], < 100 nM in experiment [2] and < 100 nM in experiment [3].
In the case of `CC(=O)Nc1nc2ccc(Sc3nnc4ccc(-c5ccc(F)cc5)nn34)cc2s1` [Example 41, N-(6-{[6-(4-Fluorophenyl)[1,2,4]triazolo[4,3-b]pyridazin-3-yl]sulphanyl}-1,3-benzothiazol-2-yl)acetamide], the IC50 was < 1000 nM in experiment [1], < 100 nM in experiment [2] and < 100 nM in experiment [3].
As for `O=C(NCC[N+]1([O-])CCOCC1)Nc1nc2ccc(Sc3nnc4ccc(-c5ccc(F)cc5)nn34)cc2s1` [Example 42, 1-(6-{[6-(4-Fluorophenyl)[1,2,4]triazolo[4,3-b]pyridazin-3-yl]sulphanyl}-1,3-benzothiazol-2-yl)-3-[2-(4-oxidomorpholin-4-yl)ethyl]urea], the IC50 is < 1000 nM in experiment [1], < 100 nM in experiment [2] and < 100 nM in experiment [3].
Turning to `Cn1cc(-c2ccc3nnc(Sc4ccc5nc(N)sc5c4)n3n2)cn1` [Example 43, 6-{[6-(1-Methyl-1H-pyrazol-4-yl)[1,2,4]triazolo[4,3-b]pyridazin-3-yl]sulphanyl}-1,3-benzothiazol-2-amine], the IC50 is < 1000 nM in experiment [1], < 100 nM in experiment [2] and < 100 nM in experiment [3].
As to `O=C(NCCN1CCOCC1)Nc1nc2ccc(Sc3nnc4n3N=C(c3ccc(F)cc3)CC4)cc2s1` [Example 44, 1-(6-{[6-(4-Fluorophenyl)-7,8-dihydro-[1,2,4]triazolo[4,3-b]pyridazin-3-yl]sulphanyl}-1,3-benzothiazol-2-yl)-3-[2-(morpholin-4-yl)ethyl]urea], the IC50 in experiment [1] was < 1000 nM; in experiment [2], < 100 nM; in experiment [3], < 100 nM.
In the case of `CCOC(=O)Nc1nc2ccc(Sc3nnc4ccc(OC)nn34)cc2s1` [Example 45, Ethyl {6-[(6-methoxy[1,2,4]triazolo[4,3-b]pyridazin-3-yl)sulphanyl]-1,3-benzothiazol-2-yl}carbamate], the results for the IC50 in experiment [1], in experiment [2] and in experiment [3] were < 1000 nM, 100 to 500 nM and < 100 nM, respectively.
In the same order, the values of `COCCCOC(=O)Nc1nc2ccc(Sc3nnc4ccc(OC)nn34)cc2s1` [Example 46, 3-Methoxypropyl {6-[(6-methoxy[1,2,4]triazolo[4,3-b]pyridazin-3-yl)sulphanyl]-1,3-benzothiazol-2-yl}carbamate] are < 1000 nM, 100 to 500 nM and < 100 nM.
Consider `COCCCOC(=O)Nc1nc2ccc(Sc3nnc4ccc(NCCOC)nn34)cc2s1` [Example 47, 3-Methoxypropyl[6-({6-[(2-methoxyethyl)amino][1,2,4]triazolo[4,3-b]pyridazin-3-yl}sulphanyl)-1,3-benzothiazol-2-yl]carbamate], for which the IC50 in experiment [1] was < 1000 nM; in experiment [2] it was 100 to 500 nM; in experiment [3] it was < 100 nM.
In the case of `COCCNc1ccc2nnc(Sc3ccc4nc(NC(=O)NCCN5CCCC5)sc4c3)n2n1` [Example 48, 1-[6-({6-[(2-Methoxyethyl)amino][1,2,4]triazolo[4,3-b]pyridazin-3-yl}sulphanyl)-1,3-benzothiazol-2-yl]-3-[2-(pyrrolidin-1-yl)ethyl]urea], the IC50 in experiment [1] is < 1000 nM; in experiment [2] it was 100 to 500 nM; in experiment [3] it was < 100 nM.
In the same order, the values of `COc1ccc2nnc(Sc3ccc4nc(NC(=O)NCCN5CCCC5)sc4c3)n2n1` [Example 49, 1-{6-[(6-Methoxy[1,2,4]triazolo[4,3-b]pyridazin-3-yl)sulphanyl]-1,3-benzothiazol-2-yl}-3-[2-(pyrrolidin-1-yl)ethyl]urea] are < 1000 nM, < 100 nM and < 100 nM.
Taken in the same sequence, the figures for `CCOc1ccc2nnc(Sc3ccc4nc(N)sc4c3)n2n1` [Example 50, 6-[(6-Ethoxy[1,2,4]triazolo[4,3-b]pyridazin-3-yl)sulphanyl]-1,3-benzothiazol-2-amine] were < 1000 nM, 100 to 500 nM and < 100 nM.
Taken in the same sequence, the figures for `CC(C)(C)OC(=O)Nc1nc2ccc(Sc3nnc4ccc(OCC(O)CCCl)nn34)cc2s1` (stereo not drawn) [Example 51, 2-Methylpropan-2-yl(6-{[6-(4-chloro-2-hydroxybutoxy)[1,2,4]triazolo[4,3-b]pyridazin-3-yl]sulphanyl}-1,3-benzothiazol-2-yl)carbamate] were < 1000 nM, < 100 nM and < 100 nM.
`CC(CO)(CCl)COc1ccc2nnc(Sc3ccc4nc(NC(=O)OC(C)(C)C)sc4c3)n2n1` (stereo not drawn) [Example 52, 2-Methylpropan-2-yl[6-({6-[3-chloro-2-(hydroxymethyl)-2-methylpropoxy]-[1,2,4]triazolo[4,3-b]pyridazin-3-yl}sulphanyl)-1,3-benzothiazol-2-yl]carbamate]: the IC50 in experiment [1] is < 1000 nM; in experiment [2], < 100 nM; in experiment [3], < 100 nM.
Turning to `Nc1nc2ccc(Sc3nnc4ccc(-c5cccc(F)c5)nn34)cc2s1` [Example 53, 6-{[6-(3-Fluorophenyl)[1,2,4]triazolo[4,3-b]pyridazin-3-yl]sulphanyl}-1,3-benzothiazol-2-amine], the values for the IC50 in experiment [1], in experiment [2] and in experiment [3] were < 1000 nM, < 100 nM and < 100 nM, respectively.
On to `Nc1nc2ccc(Sc3nnc4n3N=C(c3cccc(F)c3)CC4)cc2s1` [Example 54, 6-{[6-(3-Fluorophenyl)-7,8-dihydro[1,2,4]triazolo[4,3-b]pyridazin-3-yl]sulphanyl}-1,3-benzothiazol-2-amine], for which the IC50 in experiment [1] is < 1000 nM; in experiment [2], 100 to 500 nM; in experiment [3], < 100 nM.
Taken in the same sequence, the figures for `O=C(Nc1nc2ccc(Sc3nnc4ccc(-c5ccc(F)cc5)nn34)cc2s1)N1CCOCC1` [Example 55, N-(6-{[6-(4-Fluorophenyl)[1,2,4]triazolo[4,3-b]pyridazin-3-yl]sulphanyl}-1,3-benzothiazol-2-yl)morpholine-4-carboxamide] were < 1000 nM, 100 to 500 nM and < 100 nM.
Taken in the same sequence, the figures for `Nc1nc2ccc(Sc3nnc4ccc(-c5ccccc5F)nn34)cc2s1` [Example 56, 6-{[6-(2-Fluorophenyl)[1,2,4]triazolo[4,3-b]pyridazin-3-yl]sulphanyl}-1,3-benzothiazol-2-amine] were < 1000 nM, 100 to 500 nM and < 100 nM.
Taken in the same sequence, the figures for `CCC(C)CNc1nc2ccc(Sc3nnc4ccc(NCCOC)nn34)cc2s1` (stereo not drawn) [Example 57, N-(2-Methoxyethyl)-3-({2-[(2-methylbutyl)amino]-1,3-benzothiazol-6-yl}sulphanyl)[1,2,4]triazolo[4,3-b]pyridazin-6-amine] were < 1000 nM, 100 to 500 nM and < 100 nM.
For `CCOc1ccc2nnc(Sc3ccc4nc(NC(=O)CCOC)sc4c3)n2n1` [Example 58, N-{6-[(6-Ethoxy[1,2,4]triazolo[4,3-b]pyridazin-3-yl)sulphanyl]-1,3-benzothiazol-2-yl}-3-methoxypropanamide], the IC50 was < 1000 nM in experiment [1], < 100 nM in experiment [2] and < 100 nM in experiment [3].

Values taken from patent US9115134B2, “6-triazolopyridazine sulfanyl benzothiazole derivatives as MET inhibitors” (SANOFI, priority 2007, dated 2015).
